How the values were obtained:
[1] = system: HEK 293 cells; test: MTT cell viability assay, non-cancerous HEK 293; format: cell-based, human; details: Homo sapiens, HEK293, 48 h, mean ± SD, n = 3
Protocol: (§1) Cell viability assay was performed on the human lung cancer (A549) (ATCC CCL-185), human breast cancer (MCF-7) (ATCC-HTB-22), cervical cancer (HeLa) (ATCC-CCL-2), and human embryonic kidney 293 (HEK293) (ATCC-CRL-1573) cell lines, which were purchased from Deutsche Sammlung von Mikroorganismen und Zellkulturen (DSMZ, Braunschweig, Germany). The cells were maintained in Dulbecco’s modified Eagle’s medium (DMEM), supplemented with 10% fetal bovine serum (FBS), 2 mM L-glutamine, 100 U/mL penicillin, and 100 mg/L streptomycin (Biochrom AG, Berlin, Germany) at 37 °C in a humidified atmosphere of 5% CO2.
The cytotoxic effect was determined by the MTT (3-(4,5-dimethyl-2-thiazolyl)-2,5-diphenyl-2H-tetrazolium bromide) cell viability assay. Cells were seeded at an initial concentration of 1 × 10^5 cells/mL in 96-well microplates. Cells were then treated with different concentrations (0.5, 5, 10, 25, 50, 100 and 200 µM) of the novel synthesized compounds for 48 h. After the incubation period, the formed formazan crystals were dissolved in dimethyl sulfoxide (DMSO), and the optical density (OD) of the compounds was measured at 570 nm using a spectrophotometer (BMG Labtech, Ortenberg, Germany). Cytotoxicity was expressed as an increase in the mean percentage of cytotoxicity relative to the unexposed control ± standard deviation (SD). […] Control values were set at 0% cytotoxicity. IC50 was calculated by fitting the data to a sigmoidal curve using a four-parameter logistic model and was presented as an average of three independent measurements. […] Each sample was tested in triplicate.

[2] = system: MCF-7 cells; test: MTT cell viability assay, MCF-7; format: cell-based, human
Protocol: as §1
(§2) The cytotoxic effect was determined by the MTT (3-(4,5-dimethyl-2-thiazolyl)-2,5-diphenyl-2H-tetrazolium bromide) cell viability assay. Cells were seeded at an initial concentration of 1 × 10^5 cells/mL in 96-well microplates. Cells were then treated with different concentrations (0.5, 5, 10, 25, 50, 100 and 200 µM) of the novel synthesized compounds for 48 h. After the incubation period, the formed formazan crystals were dissolved in dimethyl sulfoxide (DMSO), and the optical density (OD) of the compounds was measured at 570 nm using a spectrophotometer (BMG Labtech, Ortenberg, Germany). Cytotoxicity was expressed as an increase in the mean percentage of cytotoxicity relative to the unexposed control ± standard deviation (SD). […] Control values were set at 0% cytotoxicity. IC50 was calculated by fitting the data to a sigmoidal curve using a four-parameter logistic model and was presented as an average of three independent measurements. […] Doxorubicin was used as a positive control. Each sample was tested in triplicate.
(§3) To evaluate the selectivity of the tested compound(s) toward cancer cells over normal cells, the Selectivity Index (SI) was calculated using the following formula:SI = IC50 (normal cells)/IC50 (cancer cells)
(§4) An SI value greater than 2 was considered to indicate selective cytotoxicity, while values below 2 were interpreted as non-selective. Higher SI values reflect greater therapeutic potential due to reduced toxicity toward normal cells.

[3] = system: A549 cells; test: MTT cell viability assay, A549; format: cell-based, human
Protocol: as §1, §2, §3, §4

[4] = system: A549, MCF-7, and HeLa cells; test: MTT cell viability assay, ranges stated across the cancer cell lines; format: cell-based; details: Homo sapiens, range over the three cancer cell lines, 48 h
Protocol: as §1
The cytotoxic effect was determined by the MTT (3-(4,5-dimethyl-2-thiazolyl)-2,5-diphenyl-2H-tetrazolium bromide) cell viability assay. Cells were seeded at an initial concentration of 1 × 10^5 cells/mL in 96-well microplates. […] After the incubation period, the formed formazan crystals were dissolved in dimethyl sulfoxide (DMSO), and the optical density (OD) of the compounds was measured at 570 nm using a spectrophotometer (BMG Labtech, Ortenberg, Germany). Cytotoxicity was expressed as an increase in the mean percentage of cytotoxicity relative to the unexposed control ± standard deviation (SD). […] IC50 was calculated by fitting the data to a sigmoidal curve using a four-parameter logistic model and was presented as an average of three independent measurements. […]

[5] = system: HeLa cells; test: MTT cell viability assay, HeLa; format: cell-based, human
Protocol: as §1, §2, §3, §4

O=c1n(CN2CCN(c3ccc(Cl)cc3)CC2)c2cc(Cl)c(Cl)cc2n1CN1CCN(c2ccc(Cl)cc2)CC1 [Compound 9, 5,6-Dichloro-1,3-bis((4-(4-chlorophenyl)piperazin-1-yl)methyl)-1H-benzo[d]imidazol-2(3H)-one]
IC50 [1]: 15.2 ± 0.87 µM | IC50 ([2]; Homo sapiens, MCF7, MTT, 48 h, mean ± SD, n = 3): 11.2 ± 0.46 µM | MCF-7 Selectivity Index (SI) ([2]; SI = IC50 (HEK 293)/IC50 (MCF-7)): 1.35 | IC50 ([3]; Homo sapiens, A549, MTT, 48 h, mean ± SD, n = 3): 9.6 ± 0.55 µM | A549 Selectivity Index (SI) ([3]; SI = IC50 (HEK 293)/IC50 (A549)): 1.58 | IC50 [4]: 8.5 to 11.2 µM | IC50 ([5]; Homo sapiens, HeLa, MTT, 48 h, mean ± SD, n = 3): 8.5 ± 0.49 µM | HeLa Selectivity Index (SI) ([5]; SI = IC50 (HEK 293)/IC50 (HeLa)): 1.78

Source: article PMC12735921, “Evaluation of Antiproliferative Activity and Molecular Modeling Studies of Some Novel Benzimidazolone-Bridged Hybrid Compounds” (Pharmaceuticals, 2025)
